{"source": "paper PMC8175851", "about": "“Effects of Genetic Polymorphism in CYP2D6, CYP2C19, and the Organic Cation Transporter OCT1 on Amitriptyline Pharmacokinetics in Healthy Volunteers and Depressive Disorder Patients” (Frontiers in Pharmacology, 2021)", "experiment": "Pharmacokinetics of AT and NT in healthy volunteers after a single dose of 25 mg amitriptyline", "assay_type": "in vivo, human", "details": "for AUC(0-inf) / AUC(0-t) / Cmax / Tmax / half-life: both sexes, human, plasma, po, 25 mg, single oral 25 mg AT; for AUC(0-t): read-out: AUC48h; for Cmax: read-out: Cmax", "description": "In order to enrich the study sample with the less frequent functionally deficient OCT1 variants, participants were selected based on OCT1 genotype from an internal database at the Institute of Clinical Pharmacology of the University Medical Center Göttingen. All volunteers who are listed in the internal database had agreed to it and the database was approved by the ethics committee of the University of Göttingen. […] Additional subjects with heterozygous genotypes were included to provide a better understanding of the effects of specific variants and the mode of inheritance. All volunteers gave their written informed consent before participation in the study. The study was approved by the ethics committee of the University of Göttingen and the German Federal Institute for Drugs and Medical Devices (BfArM). It was registered at the clinical trials databases Clinicaltrials.gov (NCT02054299) and EudraCT (number 2012-003546-33). […] Volunteers who underwent regular drug treatments other than oral contraceptives or who suffered from any relevant chronic illness, as well as pregnant or lactating women, were not included. All subjects were healthy according to a detailed medical history, medical examination, electrocardiogram, urine status and clinical chemistry, and haematology parameters (sodium, potassium, total bilirubin, aspartate aminotransferase, alanine-aminotransferase, creatinine, C-reactive protein, thyroid-stimulating hormone, haemoglobin, erythrocyte, thrombocyte, and leucocyte counts). […] After centrifugation (13,000 rpm, 15 min, room temperature), two-thirds of the supernatant were transferred to a new reaction tube and evaporated at 40°C under nitrogen flow. The residue was reconstituted under shaking in 0.1% methanoic acid and briefly centrifuged before quantification using a Nexera UHPLC system (Shimadzu, Kyoto, Japan) coupled to an API 4000 tandem mass spectrometer (AB Sciex, Darmstadt, Germany). […] PerkinElmer, Rodgau, Germany) with a Phenomenex C18 pre-column (4 × 2 mm, Phenomenex, Aschaffenburg, Germany). […] The lower limit of quantification was 0.5 ng/ml for AT and 0.1 ng/ml for NT. […] The mass spectrometry detection parameters are listed in Supplementary Table S1. For the study in healthy volunteers, the primary endpoints were the AUCs of plasma AT and NT concentrations. Secondary endpoints were the other pharmacokinetic parameters of AT and NT, as well as heart rate, blood pressure, pupil size effects, and possible adverse events (headache, fatigue, visual or hearing impairments, restlessness, nausea, dizziness, dry mouth, tremor, as well as sensations of hypothermia and heart palpitations determined using a visual analogue scale test). Pharmacokinetic parameters were calculated by non-compartmental analysis using Phoenix 64 WinNonlin version 6.3 (Certara Inc., Princeton, NJ, United States). AUCinf of AT was calculated from the time of dosing using the linear/log trapezoidal rule and extrapolated to infinity based on the last predicted concentration and using the terminal elimination rate constant (lambda z). AUC of NT was calculated from the time of dosing until the last measurement at 48 h using the linear/log trapezoidal rule, as a decline in NT concentrations was not observed in some subjects and extrapolation to infinity thus not possible.", "key": {"[1]": {"details": "healthy volunteers, 0 active OCT1 alleles (n = 12)"}, "[2]": {"details": "healthy volunteers, 1 active OCT1 allele (n = 9)"}, "[3]": {"details": "healthy volunteers, 2 active OCT1 alleles (n = 14)"}, "[4]": {"details": "healthy volunteers, CYP2C19 activity score 1 (n = 5), mean"}, "[5]": {"details": "healthy volunteers, CYP2C19 activity score 1.5 (n = 2), mean"}, "[6]": {"details": "healthy volunteers, CYP2C19 activity score 2 (n = 16), mean"}, "[7]": {"details": "healthy volunteers, CYP2C19 activity score 2.5 (n = 10), mean"}, "[8]": {"details": "healthy volunteers, CYP2D6 activity 0 (n = 3), mean"}, "[9]": {"details": "healthy volunteers, CYP2D6 activity 0.5 (n = 2), mean"}, "[10]": {"details": "healthy volunteers, CYP2D6 activity 1 (n = 10), mean"}, "[11]": {"details": "healthy volunteers, CYP2D6 activity 1.5 (n = 6), mean"}, "[12]": {"details": "healthy volunteers, CYP2D6 activity 2 (n = 11), mean"}, "[13]": {"details": "healthy volunteers, CYP2D6 activity 2.5 (n = 1), mean"}, "[14]": {"details": "healthy volunteers, CYP2D6 activity 3 (n = 2), mean"}}, "note": "“And” between values parts separate entries of the source, which are not always exact repeats. Equal entries are not always repeated. Where two headings read alike, the source gives them in different places."}
{"smiles": "CN(C)CCC=C1c2ccccc2CCc2ccccc21", "note": "[Amitriptyline, amitriptyline]", "values": [{"measurement": "maximum concentration of unbound AT in the portal vein (estimated)", "setting": "based on the calculations by Ahlin et al. and Ito et al., listed as AT", "result": "745.9 µg/L and 2.69 µM"}, {"measurement": "AUC(0-inf)", "setting": "35 healthy volunteers, read-out: AUCinf (range over all volunteers)", "result": "110 to 430", "unit": "ng·h/mL"}, {"measurement": "AUC(0-t)", "setting": "[1]", "result": "162 ± 40.5", "unit": "ng·h/mL"}, {"measurement": "AUC(0-inf)", "setting": "healthy volunteers, 0 active OCT1 alleles (n = 12), read-out: AUCinf", "result": "199 ± 60", "unit": "ng·h/mL"}, {"measurement": "Cmax", "setting": "[1]", "result": "9.9 ± 3.9", "unit": "ng/mL"}, {"measurement": "AUC(0-t)", "setting": "[2]", "result": "184 ± 56", "unit": "ng·h/mL"}, {"measurement": "AUC(0-inf)", "setting": "healthy volunteers, 1 active OCT1 allele (n = 9), read-out: AUCinf", "result": "228 ± 72.4", "unit": "ng·h/mL"}, {"measurement": "Cmax", "setting": "[2]", "result": "10.5 ± 3.3", "unit": "ng/mL"}, {"measurement": "AUC(0-t)", "setting": "[3]", "result": "194 ± 66.3", "unit": "ng·h/mL"}, {"measurement": "AUC(0-inf)", "setting": "healthy volunteers, 2 active OCT1 alleles (n = 14), read-out: AUCinf", "result": "243 ± 87.5", "unit": "ng·h/mL"}, {"measurement": "Cmax", "setting": "[3]", "result": "11.6 ± 4", "unit": "ng/mL"}, {"measurement": "AUC(0-t)", "setting": "[4]", "result": 183, "unit": "ng·h/mL"}, {"measurement": "AUC(0-inf)", "setting": "healthy volunteers, CYP2C19 activity score 1 (n = 5), mean, read-out: AUCinf", "result": 231, "unit": "ng·h/mL"}, {"measurement": "Cmax", "setting": "[4]", "result": 11.1, "unit": "ng/mL"}, {"measurement": "AUC(0-t)", "setting": "[5]", "result": 256, "unit": "ng·h/mL"}, {"measurement": "AUC(0-inf)", "setting": "healthy volunteers, CYP2C19 activity score 1.5 (n = 2), mean, read-out: AUCinf", "result": 317, "unit": "ng·h/mL"}, {"measurement": "Cmax", "setting": "[5]", "result": 16.2, "unit": "ng/mL"}, {"measurement": "AUC(0-t)", "setting": "[6]", "result": 172, "unit": "ng·h/mL"}, {"measurement": "AUC(0-inf)", "setting": "healthy volunteers, CYP2C19 activity score 2 (n = 16), mean, read-out: AUCinf", "result": 210, "unit": "ng·h/mL"}, {"measurement": "Cmax", "setting": "[6]", "result": 10.5, "unit": "ng/mL"}, {"measurement": "AUC(0-t)", "setting": "[7]", "result": 171, "unit": "ng·h/mL"}, {"measurement": "AUC(0-inf)", "setting": "healthy volunteers, CYP2C19 activity score 2.5 (n = 10), mean, read-out: AUCinf", "result": 211, "unit": "ng·h/mL"}, {"measurement": "Cmax", "setting": "[7]", "result": 9.5, "unit": "ng/mL"}, {"measurement": "AUC(0-t)", "setting": "[8]", "result": 236, "unit": "ng·h/mL"}, {"measurement": "AUC(0-inf)", "setting": "healthy volunteers, CYP2D6 activity 0 (n = 3), mean, read-out: AUCinf", "result": 311, "unit": "ng·h/mL"}, {"measurement": "Cmax", "setting": "[8]", "result": 10.9, "unit": "ng/mL"}, {"measurement": "AUC(0-t)", "setting": "[9]", "result": 166, "unit": "ng·h/mL"}, {"measurement": "AUC(0-inf)", "setting": "healthy volunteers, CYP2D6 activity 0.5 (n = 2), mean, read-out: AUCinf", "result": 214, "unit": "ng·h/mL"}, {"measurement": "Cmax", "setting": "[9]", "result": 12.7, "unit": "ng/mL"}, {"measurement": "AUC(0-t)", "setting": "[10]", "result": 199, "unit": "ng·h/mL"}, {"measurement": "AUC(0-inf)", "setting": "healthy volunteers, CYP2D6 activity 1 (n = 10), mean, read-out: AUCinf", "result": 251, "unit": "ng·h/mL"}, {"measurement": "Cmax", "setting": "[10]", "result": 11.9, "unit": "ng/mL"}, {"measurement": "AUC(0-t)", "setting": "[11]", "result": 184, "unit": "ng·h/mL"}, {"measurement": "AUC(0-inf)", "setting": "healthy volunteers, CYP2D6 activity 1.5 (n = 6), mean, read-out: AUCinf", "result": 226, "unit": "ng·h/mL"}, {"measurement": "Cmax", "setting": "[11]", "result": 10.3, "unit": "ng/mL"}, {"measurement": "AUC(0-t)", "setting": "[12]", "result": 162, "unit": "ng·h/mL"}, {"measurement": "AUC(0-inf)", "setting": "healthy volunteers, CYP2D6 activity 2 (n = 11), mean, read-out: AUCinf", "result": 196, "unit": "ng·h/mL"}, {"measurement": "Cmax", "setting": "[12]", "result": 10, "unit": "ng/mL"}, {"measurement": "AUC(0-t)", "setting": "[13]", "result": 142, "unit": "ng·h/mL"}, {"measurement": "AUC(0-inf)", "setting": "healthy volunteers, CYP2D6 activity 2.5 (n = 1), mean, read-out: AUCinf", "result": 158, "unit": "ng·h/mL"}, {"measurement": "Cmax", "setting": "[13]", "result": 7, "unit": "ng/mL"}, {"measurement": "AUC(0-t)", "setting": "[14]", "result": 130, "unit": "ng·h/mL"}, {"measurement": "AUC(0-inf)", "setting": "healthy volunteers, CYP2D6 activity 3 (n = 2), mean, read-out: AUCinf", "result": 157, "unit": "ng·h/mL"}, {"measurement": "Cmax", "setting": "[14]", "result": 10.2, "unit": "ng/mL"}, {"measurement": "Tmax", "setting": "[1]", "result": "3.4 ± 1.6", "unit": "h"}, {"measurement": "half-life", "setting": "[1]", "result": "20.3 ± 3.8", "unit": "h"}, {"measurement": "Tmax", "setting": "[2]", "result": "3.1 ± 1", "unit": "h"}, {"measurement": "half-life", "setting": "[2]", "result": "20.5 ± 3.9", "unit": "h"}, {"measurement": "Tmax", "setting": "[3]", "result": "2.9 ± 1.4", "unit": "h"}, {"measurement": "half-life", "setting": "[3]", "result": "21 ± 4", "unit": "h"}, {"measurement": "Tmax", "setting": "[4]", "result": 2.6, "unit": "h"}, {"measurement": "half-life", "setting": "[4]", "result": 21.6, "unit": "h"}, {"measurement": "Tmax", "setting": "[5]", "result": 2, "unit": "h"}, {"measurement": "half-life", "setting": "[5]", "result": 20.3, "unit": "h"}, {"measurement": "Tmax", "setting": "[6]", "result": 3.2, "unit": "h"}, {"measurement": "half-life", "setting": "[6]", "result": 20.1, "unit": "h"}, {"measurement": "Tmax", "setting": "[7]", "result": 3.6, "unit": "h"}, {"measurement": "half-life", "setting": "[7]", "result": 19.8, "unit": "h"}, {"measurement": "Tmax", "setting": "[8]", "result": 3.4, "unit": "h"}, {"measurement": "half-life", "setting": "[8]", "result": 23.7, "unit": "h"}, {"measurement": "Tmax", "setting": "[9]", "result": 2, "unit": "h"}, {"measurement": "half-life", "setting": "[9]", "result": 24.2, "unit": "h"}, {"measurement": "Tmax", "setting": "[10]", "result": 2.7, "unit": "h"}, {"measurement": "half-life", "setting": "[10]", "result": 21.4, "unit": "h"}, {"measurement": "Tmax", "setting": "[11]", "result": 3.7, "unit": "h"}, {"measurement": "half-life", "setting": "[11]", "result": 19.8, "unit": "h"}]}
